For series [1], the system named is Mycobacterium tuberculosis in THP-1 macrophage. Type of series: cell-based.
Series [2] concerns Mycobacterium tuberculosis.
The subject of a further series is THP-1 macrophages. The series is described as follows: Cytotoxic effect on THP-1 macrophages, DAPI fluorescence microscopy. Type of series: cell-based, Human. The note with it: 100 μM; 10 days of treatment; compared with untreated control. Here is the method: The THP1 macrophages were treated with 100 μM of p-HMB (Inhibitor) and incubated for 10 days and then stained with DAPI dye before taking pictures under a fluorescent microscope. The control cells were treated with the vehicle only under identical conditions.
THP-1 macrophage cells were grown on cover slip in 8 well microplates and washed twice with chilled methanol followed by staining with 4′,6-diamidino-2-phenylindole (DAPI) at final concentration of 300 nM. Macrophage cells were kept for 15 min at room temperature under dark condition. After incubation, cells were washed three times with distilled water and analyzed under the fluorescence microscope (Leitz Wetzlar model, Germany) at 350 nm excitation and 450 nm emission wavelengths (400×) using ‘A’ filter.
To investigate the host THP-1 macrophage cells condition due to its exposure to p-HMB inhibitor before considering its effective and specific inhibition of bacilli in macrophage infection models, fluorescence microscopic picture of THP-1 cells treated with p-HMB (100 μM) was compared with the untreated control after staining with DAPI (4′,6-diamidino-2-phenylindole). Fluorescence images were taken after 10th day of inhibitor treatment.

Where two headings read alike, the source gives them in different places.

In the case of `[N-]=[N+]=[N-]` [Azide], the “decrease in intracellular viable bacilli count compared to control (without inhibitor)” value (“decrease … (without inhibitor)” for short) in series [1] is recorded as around 1.5 log difference.

`CS(=N)(=O)CC[C@H](N)C(=O)O` (stereo partly drawn) [L-MSO, L-methionine sulfoximine]: the “decrease … (without inhibitor)” value in series [1] is reported as around 2.5 log difference.

Consider `O=C(O)c1cc[c]([Hg][OH])cc1` [p-HMB, para-hydroxy mercuric benzoate], for which the “cell count reduction compared to bacilli grown under ammonia” value in series [2] is around 2.5 log difference. Moreover, the “decrease … (without inhibitor)” value in series [1] ([…], cell count on 10th day PI, THP-1 macrophages) is around 2 log difference. In addition, in series [1] (in-vitro and ex-vivo conditions (summary statement)), the “reduction of bacilli count” value is around 2 log cfu. Besides, in the series on THP-1 macrophages, the “cytotoxic effect on macrophage (nuclear integrity, DAPI staining)” value is “without exhibiting any cytotoxic effects”.

These data come from US8877452B2, “Nitrite-reductase (NIRB) as potential anti-tubercular target and a method to detect the severity of tuberculosis disease” (priority 2013, dated 2014).
